Literature values, collected in US8754055B2, “Methods, compositions, and kits for collecting and detecting oligonucleotides” (The Invention Science Fund I, LLC, priority 2008, dated 2014).
Like-named read-outs stand apart in the source and are kept apart here.

How the values were obtained:
[1] = 40, 8, and 1.6 μg injections once daily over 35 days
[2] = in humans
RNase A = target: T1, RNase A (Bos taurus, UniProt P61823); conditions: RNAse A catalysis, read-out: inhibition constant (Ki)
T1 sequence (P61823 27-150): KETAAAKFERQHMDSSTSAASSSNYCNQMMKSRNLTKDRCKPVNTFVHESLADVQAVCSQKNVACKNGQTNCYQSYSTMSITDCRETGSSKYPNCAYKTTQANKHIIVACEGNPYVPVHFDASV

Nc1ccc(N=Nc2ccc(-c3ccc(O)cc3)cc2)c2ccc(S(=O)(=O)O)cc12 [8-amino-5-(4′-hydroxylbiphenyl-4-ylazo)naphthalene-2-sulfonate]
overt toxicity [1]: without overt toxicity

Etanercept
half-life [2]: 70 h

oligo(vinylsulfonic acid)
Ki (RNase A; 0 mM sodium chloride (lower end of salt-dependent range)): ~0.01 nM
Ki (RNase A; 100 mM sodium chloride (upper end of salt-dependent range)): ~120 nM
